Results: US10213464B2, “Method for enhancing engraftment of haematopoetic stem cells” (SCIPHARM SARL, priority 2011, dated 2019)

How the values were obtained:
[1] = test system: (Lin−, c-Kit+, Sca-1+) haematopoetic stem cells; assay: [3H]cAMP accumulation assay in haematopoetic stem cells; type: cell-based, mouse; conditions: for cAMP accumulation, compound per se: without forskolin, FIG. 4, FIG. 5
Method: Ten mice (C57BL/6) were sacrificed by cervical dislocation. The long bones of the hind limbs (i.e., femora and tibiae) were freed of muscle and connective tissue and flushed with RPMI medium using a syringe and 27½ G needle. The cell suspension was freed from visible connective tissue, collected and transferred to centrifuge tubes. Cells were harvested by centrifugation (1,200 rpm/˜100 g for 5 min) and resuspended in 3 mL erythrocyte lysis buffer (0.15 M NH4Cl, 10 mM KHCO3, 0.1 mM EDTA, pH adjusted to 7.2 to 7.4). The cell suspension was incubated for 2 min at 20° C. followed by 4 min on ice. Thereafter, RPMI (10 mL) was added and the cells were harvested by centrifugation and counted. […] Cells were resuspended in ice-cold PBS (phosphate buffered saline) containing 2% FCS (fetal calf serum) at a cell density of 2.5*10^8 cells/mL to which a cocktail of biotinylated antibodies (“Lineage Cell Depletion Kit” of Miltenyi Biotec) containing lineage-specific antibodies directed against CD5, CD45R (B220), CD11b, GR-1 (=Ly-6G/C), 7-4, and Ter-119 at a ratio of 0.1 mL antibody solution per 10^8 cells. Cells were incubated for 20 min on ice with the antibodies and pelleted by centrifugation. […] Thereafter, the sample was diluted in MACS-buffer (30 mL), the cells were collected by centrifugation and resuspended in 6 mL of MACS-buffer. This suspension was loaded onto prepacked LS columns, which contain ferromagnetic beads coated with a cell-compatible plastic material. Typically three columns were employed for (2 mL cells suspension/column). The flow-through contained the lineage marker-negative cells (Lin^− cells), while the lineage committed cells were retained on the column. Cells were pelleted by centrifugation and resuspended in […]. Lin^−/sca1^+-cells were incubated in 1 mL of stem cell medium (Stem Span SFEM, Stem Cell Tech #09650) containing 0.5 mg/L each, benzylpenicillin and streptomycin, 50 ng/mL each murine stem cell factor (mSCF), human Flt-3, hIL-11 50 ng/mL, m-IL3 (10 ng/mL) (all from PreProTech) 10 μg/mL adenosine deaminase (Roche) and [^3H]adenine (Perkin Elmer, 1 μCi/mL). The preincubation lasted for 4 h at 37° C. […] The cells were then pelleted (5 min at 100 g), the medium was removed and the pellet was lysed in ice-cold 2.5% perchloric acid (0.9 mL) containing 0.1 mM cAMP, held on ice for 1 h and neutralized with 4.2 M KOH (0.1 mL)). Lineage marker-positive cells were preincubated in a similar manner but the medium contained RMPI instead of serum-free stem cell medium. ATP and cAMP were separated by sequential chromatography on columns containing Dowex AG50-X8 and neutral alumina (12). The fact that differences can only be seen in the presence of forskolin is a technical problem—the signal is too low in the absence of forskolin-sensitization to see any differences between the different compounds, i.e. ilo-, beraprost and treprostinil. Sensitization means that cells are sensitized for receptor response as these cells contain extremely low cAMP.

[2] = test system: Lin+ haematopoetic cell fraction; assay: [3H]cAMP accumulation assay in lineage marker-positive cells; type: cell-based, mouse; conditions: data not shown
Method: Ten mice (C57BL/6) were sacrificed by cervical dislocation. The long bones of the hind limbs (i.e., femora and tibiae) were freed of muscle and connective tissue and flushed with RPMI medium using a syringe and 27½ G needle. The cell suspension was freed from visible connective tissue, collected and transferred to centrifuge tubes. Cells were harvested by centrifugation (1,200 rpm/˜100 g for 5 min) and resuspended in 3 mL erythrocyte lysis buffer (0.15 M NH4Cl, 10 mM KHCO3, 0.1 mM EDTA, pH adjusted to 7.2 to 7.4). The cell suspension was incubated for 2 min at 20° C. followed by 4 min on ice. Thereafter, RPMI (10 mL) was added and the cells were harvested by centrifugation and counted. The typical yield of cells was 3*10^7/mouse. Cells were resuspended in ice-cold PBS (phosphate buffered saline) containing 2% FCS (fetal calf serum) at a cell density of 2.5*10^8 cells/mL to which a cocktail of biotinylated antibodies (“Lineage Cell Depletion Kit” of Miltenyi Biotec) containing lineage-specific antibodies directed against CD5, CD45R (B220), CD11b, GR-1 (=Ly-6G/C), 7-4, and Ter-119 at a ratio of 0.1 mL antibody solution per 10^8 cells. Cells were incubated for 20 min on ice with the antibodies and pelleted by centrifugation. […]

[3] = test system: Lin− (Sca1+ and c-Kit+) haematopoetic stem cells; assay: Bone marrow transplantation: reconstitution of bone marrow in lethally irradiated mice by ex vivo pretreated stem cells; conditions: FIG. 6
EP2-receptors = EP2-receptors (Homo sapiens, UniProt P43116); conditions: reference 10; cited from earlier work
EP3-receptors = target: T1, EP3-receptors (Homo sapiens, UniProt P43115); conditions: Gi-coupled, inhibit cAMP accumulation; cited from earlier work
T1 sequence (P43115 1-390): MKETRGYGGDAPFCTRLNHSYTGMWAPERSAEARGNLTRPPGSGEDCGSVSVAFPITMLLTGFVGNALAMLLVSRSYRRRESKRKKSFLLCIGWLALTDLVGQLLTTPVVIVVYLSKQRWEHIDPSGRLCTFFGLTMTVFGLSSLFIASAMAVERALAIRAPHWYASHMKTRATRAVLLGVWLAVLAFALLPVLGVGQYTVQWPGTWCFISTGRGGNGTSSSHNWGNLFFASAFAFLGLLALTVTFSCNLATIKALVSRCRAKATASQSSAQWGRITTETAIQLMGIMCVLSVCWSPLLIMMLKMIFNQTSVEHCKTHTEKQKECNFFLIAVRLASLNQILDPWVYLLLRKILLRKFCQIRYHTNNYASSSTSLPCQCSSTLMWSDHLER

EP4-receptors = EP4-receptors (Homo sapiens, UniProt P35408); conditions: reference 10; cited from earlier work
haematopoetic stem cells [4] = conditions: references 7, 8; cited from earlier work
haematopoetic stem cells [5] = conditions: in vivo; cited from earlier work

Chain of EP2-receptors (P43116 whole entry): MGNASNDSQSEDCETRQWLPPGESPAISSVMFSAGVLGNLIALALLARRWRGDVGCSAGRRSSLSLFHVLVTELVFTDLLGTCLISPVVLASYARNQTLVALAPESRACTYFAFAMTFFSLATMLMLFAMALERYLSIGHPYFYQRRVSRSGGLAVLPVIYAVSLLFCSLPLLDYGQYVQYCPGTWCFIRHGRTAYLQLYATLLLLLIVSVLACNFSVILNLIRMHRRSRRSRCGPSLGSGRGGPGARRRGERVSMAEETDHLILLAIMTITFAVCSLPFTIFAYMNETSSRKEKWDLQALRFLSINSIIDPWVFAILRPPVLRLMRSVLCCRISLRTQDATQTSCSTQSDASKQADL
Chain of EP4-receptors (P35408 whole entry): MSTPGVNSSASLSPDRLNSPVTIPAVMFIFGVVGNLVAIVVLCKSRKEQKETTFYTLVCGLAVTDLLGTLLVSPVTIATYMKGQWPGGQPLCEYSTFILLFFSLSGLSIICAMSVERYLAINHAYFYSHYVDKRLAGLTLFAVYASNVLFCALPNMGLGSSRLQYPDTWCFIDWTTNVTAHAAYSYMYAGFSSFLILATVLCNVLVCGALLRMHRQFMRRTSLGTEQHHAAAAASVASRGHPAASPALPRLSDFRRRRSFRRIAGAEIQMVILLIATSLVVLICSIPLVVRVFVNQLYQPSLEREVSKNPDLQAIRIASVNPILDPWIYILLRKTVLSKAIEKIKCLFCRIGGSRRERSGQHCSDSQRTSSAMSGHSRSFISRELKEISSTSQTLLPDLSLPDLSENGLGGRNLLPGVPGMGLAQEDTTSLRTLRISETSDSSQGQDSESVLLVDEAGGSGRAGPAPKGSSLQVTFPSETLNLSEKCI

CC#CCC(C)C(O)C=CC1C(O)CC2Oc3c(CCCC(=O)O)cccc3C21 (stereo not shown) [Beraprost, 2,3,3a,8b-tetrahydro-2-hydroxy-1-(3-hydroxy-4-methyl-1-octen-6-ynyl)-1H-cyclopenta(b)benzofuran-5-butanoic acid]
cAMP accumulation, compound per se ([1]; stimulation 1 h): modest accumulation of cAMP

CC#CCC(C)[C@H](O)/C=C/[C@@H]1[C@H]2C/C(=C/CCCC(=O)O)C[C@H]2C[C@H]1O (stereo partly drawn) [Iloprost, 5-{(E)-(1S,5S,6R,7R)-7-hydroxy-6[(E)-(3S, 4RS)-3-hydroxy-4-methyl-1-octen-6-inyl]-bi-cyclo[3.3.0]octan-3-ylidene}pentanoic acid]
cAMP accumulation, compound per se ([1]; stimulation 1 h): modest accumulation of cAMP

CCCCC[C@H](O)CC[C@@H]1[C@H]2Cc3cccc(OCC(=O)[O-])c3C[C@H]2C[C@H]1O.[Na+] [Treprostinil, (1R,2R,3aS,9aS)-[[2,3,3a,4,9,9a-hexahydro-2-hydroxy-1-[(3S)-3-hydroxyoctyl]-1H-benz[f]inden-5-yl]oxy]acetic acid monosodium salt]
concentration range of concentration-dependent accumulation of cAMP ([1]; FIG. 5): 0.1 to 10 µM
EC50 ([1]; Mus musculus, concentration-response curve, FIG. 5, read-out: estimated EC50 of cAMP accumulation): ~0.3 µM
increase in cAMP levels when combined with forskolin ([1]; combined with forskolin, stimulation 1 h, FIG. 4): exceeded that caused by the IP-(I prostanoid) receptor-specific compounds Iloprost and Beraprost
cAMP accumulation, compound per se ([1]; stimulation 1 h, listed as Trepostinil, monosodium salt): increase of cAMP is significant
cAMP accumulation, compound per se ([1]; stimulation 1 h, monosodium salt): modest accumulation of cAMP
cAMP levels in Lin+ cells [2]: failed to increase cAMP levels
level of circulating white blood cells ([3]; day 60 after injection of 3*10^5 cells pretreated ex vivo with 10 μM for 1 h at 37° C., versus vehicle-treated cells): significantly higher levels of circulating white blood cells
effectiveness compared with positive control cholera toxin ([3]; ex vivo pretreatment, white blood cell count): as effective as the positive control cholera toxin
stimulation of EP2-receptors (EP2-receptors): stimulates
agonism at EP3-receptors (EP3-receptors): low affinity agonist
stimulation of EP4-receptors (EP4-receptors): stimulates

CCCCC(C)(C)[C@H](O)/C=C/[C@H]1[C@H](O)CC(=O)[C@@H]1C/C=C\CCCC(=O)O [dimethyl-PGE2]
agonism at EP3-receptors (EP3-receptors): full agonist
engraftment after pretreatment (haematopoetic stem cells [4]): enhances their engraftment

cholera toxin
(Lin−) precursor cells in the bone marrow after pretreatment (haematopoetic stem cells [5]): about twice as many
